Publication PMC12339935 (Scientific Reports, 2025)
In brackets after ≈: the same amount, converted by molar mass.

Assays:
[1] = test system: MCF-7 (human breast cancer) cells; details: maximum tested concentration 50 µg/ml
Vero cells = details: non-cancerous, maximum tested concentration 50 µg/ml
[2] = test system: Bacillus cereus ATCC 11778; test: Antibacterial optical density microplate assay, B. cereus; format: cell-based; details: for Anti-Bacillus cereus (MIC, µg/ml): B. cereus ATCC 11778, maximum tested concentration 50 µg/ml; for MIC: Bacillus cereus, ATCC11778, read-out: Anti-Bacillus cereus (MIC, µg/ml)
in vitro [3] = details: human
in vitro [4] = details: human; remark: listed apart in the source
[5] = test system: Staphylococcus aureus ATCC 29213; test: Antibacterial optical density microplate assay, S. aureus; format: cell-based; details: ATCC29213, read-out: Anti-Staphylococcus aureus (MIC, µg/ml)
Escherichia coli = details: literature value; cited from earlier work
in vitro [6] = details: human (MCF-7, NCI-H187); African green monkey (Vero)
Mycobacterium bovis = details: cited from earlier work
S. aureus = details: literature value; cited from earlier work
[7] = test system: NCI-H187 (human small-cell lung cancer) cells; details: maximum tested concentration 50 µg/ml

| Compound | Cytotoxicity (IC50, µM) MCF-7 [1] | Cytotoxicity (IC50, µM) Vero (Vero cells) | Anti-Bacillus cereus (MIC, µg/ml) [2] | MIC [5] | MIC [2] | other results |
| --- | --- | --- | --- | --- | --- | --- |
| NC(=O)c1cccc(O)c1O [Compound 5, 2,3-dihydroxybenzamide] | Inactive | Inactive | Inactive |  |  | IC50 (in vitro [3]): 33.8 µM |
| CC/C(=C(\c1ccccc1)c1ccc(OCCN(C)C)cc1)c1ccccc1 [Tamoxifen] |  |  |  |  |  | IC50 (in vitro [4]): 43.4 µM |
| CO[C@H]1/C=C/O[C@@]2(C)Oc3c(C)c(O)c4c(O)c(c(/C=N/N5CCN(C)CC5)c(O)c4c3C2=O)NC(=O)/C(C)=C\C=C\[C@H](C)[C@H](O)[C@@H](C)[C@@H](O)[C@@H](C)[C@H](OC(C)=O)[C@@H]1C [Rifampicin, reference compound] |  |  |  | 0.04 to 0.56 µg/mL (≈ 0.0486 to 0.68 µM) | 0.16 to 0.63 µg/mL (≈ 0.194 to 0.766 µM) |  |
| Cc1c2ccncc2c(C)c2c1[nH]c1ccccc12 [Ellipticine, reference compound] |  |  |  |  |  | IC50 (in vitro [3]): 11.8 µM |
| CC(=O)Nc1c2sscc-2n(C)c1=O [Compound 1, thiolutin] |  |  |  | 3.13 µg/mL (≈ 13.7 µM) | 1.56 µg/mL (≈ 6.83 µM) | MIC against Escherichia coli (Escherichia coli): 6.25 mg/L (≈ 27.4 µM); IC50 (in vitro [6]): 0.35 to 5.61 µM; MIC against Mycobacterium bovis (Mycobacterium bovis): 0.313 mg/L (≈ 1.37 µM); MIC against S. aureus (S. aureus): 3.125 mg/L (≈ 13.7 µM) |
| COc1cccc(C(N)=O)c1O [Compound 6, 2-hydroxy-3-methoxybenzamide] | Inactive | Inactive | Inactive |  |  | Cytotoxicity (IC50, µM) NCI-H187 [7]: Inactive |
| Nc1cccc2c(=O)[nH]c(=O)oc12 [Compound 3, 8-amino-2 H-benz[e][1,3]oxazine-2,4(3 H)-dione] | Inactive | Inactive | Inactive |  |  | Cytotoxicity (IC50, µM) NCI-H187 [7]: Inactive |
| CN[C@H](CC(C)C)C(=O)N[C@H]1C(=O)N[C@@H](CC(N)=O)C(=O)N[C@H]2C(=O)N[C@H]3C(=O)N[C@H](C(=O)N[C@H](C(=O)O)c4cc(O)cc(O)c4-c4cc3ccc4O)[C@H](O)c3ccc(c(Cl)c3)Oc3cc2cc(c3O[C@@H]2O[C@H](CO)[C@@H](O)[C@H](O)[C@H]2O[C@H]2C[C@](C)(N)[C@H](O)[C@H](C)O2)Oc2ccc(cc2Cl)[C@H]1O [Vancomycin, reference compound] |  |  |  | 4 µg/mL (≈ 2.76 µM) | 1 to 2 µg/mL (≈ 0.69 to 1.38 µM) |  |
